The source made the active and inactive calls. No cut-off for these calls is given here.
Key:
[1] = target: T1, Glutamate NMDA receptor (Mus musculus) (UniProt P35436+Q91ZU9+Q03391+P35438+Q01097+Q01098+A2AIR5); experiment: Positive allosteric modulation of C57BL/6 mouse NMDA receptor assessed as fold change in compound potentiated NMDA-induced current relative to NMDA current alone at 30 uM measured after 15 to 30 mins by patch-clamp method; type: tissue-based; conditions: Brain, filed as positive allosteric modulator, time 15-30 min
[2] = Brain to blood partition coefficient of the compound; type: physicochemical, tissue-based; conditions: read-out: logBB (converted)
Glutamate NMDA receptor = experiment: Positive allosteric modulation of C57BL/6 mouse NMDA receptor assessed as potentiation of NMDA-induced current in presence of saturating glutamate by patch-clamp method; type: tissue-based, Brain
[3] = target: T1, Glutamate NMDA receptor (Mus musculus); experiment: Positive allosteric modulation of C57BL/6 mouse NMDA receptor assessed as fold change in compound potentiated NMDA-induced current relative to NMDA current alone in presence of saturating glutamate by patch-clamp method; type: tissue-based; conditions: Brain, filed as positive allosteric modulator
Mus musculus [4] = experiment: Antidepressant activity in ICR mouse assessed as decrease in immobility time at 30 mg/kg, ip measured after 26 mins by forced swim test; type: functional, organism-based
Mus musculus [5] = experiment: Antidepressant activity in ICR mouse assessed as decrease in immobility time at 3 to 10 mg/kg, ip measured after 26 mins by forced swim test; type: functional, organism-based; conditions: dose 3-10 mg/kg
[6] = Effect on locomotor activity in ICR mouse assessed as hyperlocomotion at 10 mg/kg, ip measured after 90 mins; type: ADME, organism-based; conditions: in vivo, 1.5 h
[7] = Effect on locomotor activity in ICR mouse assessed as hypolocomotion at 10 mg/kg, ip measured after 90 mins; type: ADME, organism-based; conditions: in vivo, 1.5 h
Mus musculus [8] = experiment: Antidepressant activity in ICR mouse aassessed as inhibition of apomorphine-induced climbing behaviour at 10 mg/kg, ip administered prior to APO challenge and measured after 30 mins; type: functional, organism-based
[9] = Cytotoxicity against African green monkey Vero cells assessed as cell growth inhibition at 120 uM measured after 48 hrs by CCK8 assay relative to control; type: cell-based; conditions: chlorocebus sabaeus
[10] = Cytotoxicity against African green monkey Vero cells assessed as cell growth inhibition at 60 uM measured after 48 hrs by CCK8 assay relative to control; type: cell-based; conditions: chlorocebus sabaeus
[11] = Cytotoxicity against mouse L929 cells assessed as cell growth inhibition at 120 uM measured after 48 hrs by CCK8 assay relative to control; type: cell-based
[12] = Cytotoxicity against mouse L929 cells assessed as cell growth inhibition at 60 uM measured after 48 hrs by CCK8 assay relative to control; type: cell-based
[13] = Cytotoxicity against human HEK293 cells assessed as cell growth inhibition at 120 uM measured after 48 hrs by CCK8 assay relative to control; type: cell-based
[14] = Cytotoxicity against human HEK293 cells assessed as cell growth inhibition at 60 uM measured after 48 hrs by CCK8 assay relative to control; type: cell-based
hERG (KCNH2) [15] = target: T2, hERG (KCNH2) (Homo sapiens, UniProt Q12809); experiment: Inhibition of human ERG expressed in CHO cells at 100 uM with holding potential at -80 to -60 mV for 500s followed by raise in potential at +30 mV for 2 sec and subsequent repolarization to -60 mV for 2 sec by whole-cell patch clamp method relative to control; type: cell-based; conditions: CHO cells expressing human ERG
hERG (KCNH2) [16] = target: T2, hERG (KCNH2); experiment: Inhibition of human ERG expressed in CHO cells at 30 uM with holding potential at -80 to -60 mV for 500s followed by raise in potential at +30 mV for 2 sec and subsequent repolarization to -60 mV for 2 sec by whole-cell patch clamp method relative to control; type: cell-based; conditions: CHO cells expressing human ERG

T2 sequence (Q12809 whole entry): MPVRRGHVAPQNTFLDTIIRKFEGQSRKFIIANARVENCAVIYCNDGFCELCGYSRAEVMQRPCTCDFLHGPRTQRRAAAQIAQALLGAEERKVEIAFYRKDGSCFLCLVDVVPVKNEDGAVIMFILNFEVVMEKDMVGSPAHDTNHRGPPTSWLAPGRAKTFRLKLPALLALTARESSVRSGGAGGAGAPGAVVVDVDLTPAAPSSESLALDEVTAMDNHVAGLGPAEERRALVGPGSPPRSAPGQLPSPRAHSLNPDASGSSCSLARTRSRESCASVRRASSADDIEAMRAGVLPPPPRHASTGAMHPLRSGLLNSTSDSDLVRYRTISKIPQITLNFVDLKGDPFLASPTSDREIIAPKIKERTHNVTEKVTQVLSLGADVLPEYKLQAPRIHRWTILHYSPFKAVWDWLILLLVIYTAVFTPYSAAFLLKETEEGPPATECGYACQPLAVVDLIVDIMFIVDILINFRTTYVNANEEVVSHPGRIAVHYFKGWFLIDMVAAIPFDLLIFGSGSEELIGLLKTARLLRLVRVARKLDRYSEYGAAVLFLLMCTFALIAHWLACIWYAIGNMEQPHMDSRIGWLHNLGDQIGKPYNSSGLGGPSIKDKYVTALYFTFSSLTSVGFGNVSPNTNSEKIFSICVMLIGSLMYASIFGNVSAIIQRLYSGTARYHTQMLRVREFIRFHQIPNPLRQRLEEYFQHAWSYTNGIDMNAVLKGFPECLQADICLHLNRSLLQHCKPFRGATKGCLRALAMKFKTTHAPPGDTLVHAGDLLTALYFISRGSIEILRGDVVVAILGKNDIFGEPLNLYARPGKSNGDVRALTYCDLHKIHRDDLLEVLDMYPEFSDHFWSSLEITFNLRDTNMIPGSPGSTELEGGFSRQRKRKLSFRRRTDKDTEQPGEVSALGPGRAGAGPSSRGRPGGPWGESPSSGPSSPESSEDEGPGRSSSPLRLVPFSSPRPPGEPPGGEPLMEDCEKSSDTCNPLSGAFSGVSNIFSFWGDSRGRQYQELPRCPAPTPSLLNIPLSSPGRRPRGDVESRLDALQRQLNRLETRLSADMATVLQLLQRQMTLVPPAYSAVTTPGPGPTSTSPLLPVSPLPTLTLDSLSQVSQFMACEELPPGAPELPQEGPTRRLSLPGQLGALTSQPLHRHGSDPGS

Compound | fold change (FC) [1] | Kp [2] | other results
Cc1cc(Cl)ccc1NC(=O)c1ccc(Cn2nc(C(F)(F)F)cc2C(F)(F)F)o1 | 0.7 | 2.51 | 
Cc1cc(C(F)(F)F)n(Cc2ccc(C(=O)Nc3ccc(Br)cc3C)o2)n1 | 1.2 | 1.58 | 
Cc1cc(C)n(Cc2ccc(C(=O)Nc3ccc(Br)cc3Cl)o2)n1 | 1.7 | 1 | 
Cc1cc(C)n(Cc2ccc(C(=O)Nc3cc(F)cc(F)c3)s2)n1 | 5 | 1 | 
Cc1cc(C)n(Cc2ccc(C(=O)Nc3ccccc3C)o2)n1 | 1.2 | 0.49 | 
O=C(Nc1ccc(Cl)cc1Cl)c1ccc(Cn2nc(C(F)(F)F)cc2C(F)(F)F)o1 | 0.4 | 3.98 | 
Cc1cc(C)n(Cc2ccc(C(=O)Nc3cccnc3)o2)n1 | 2.9 | 0.251 | 
Cc1cc(C)n(Cc2ccc(C(=O)Nc3ccc(-c4cccnc4)cc3C)s2)n1 | 1.8 | 0.251 | 
Cc1cc(Br)ccc1NC(=O)c1ccc(Cn2nc(C(F)(F)F)cc2C(F)(F)F)o1 | 10.7 | 2.51 | 
COC(=O)c1cc(Cl)ccc1NC(=O)c1ccc(Cn2nc(C)cc2C)o1 | 0.1 | 0.158 | 
Cc1cc(C)n(Cc2ccc(C(=O)Nc3ccc(F)c(Cl)c3)s2)n1 | 3.5 | 1.26 | 
Cc1cc(C)n(Cc2ccc(C(=O)Nc3ccc(-c4ccccc4)cc3)s2)n1 | 2.8 | 0.398 | 
Cc1cc(C)n(Cc2ccc(C(=O)Nc3ccc4ccccc4c3)s2)n1 | 1.8 | 0.631 | 
Cc1cc(C)n(Cc2ccc(C(=O)Nc3ccc(F)cc3C)s2)n1 | 10.1 | 0.794 | EC50 (Glutamate NMDA receptor): 7.8 µM; fold change (FC) [3]: 10.2; Activity (Mus musculus [4]): Active; Activity (Mus musculus [5]): inactive; Activity [6]: Non-Toxic; Activity [7]: Non-Toxic; Activity (Mus musculus [8]): inactive; inhibition at 48 h, 120 µM [9]: 8.7%; inhibition at 48 h, 60 µM [10]: -1.5%; inhibition at 48 h, 120 µM [11]: 23.9%; inhibition at 48 h, 60 µM [12]: 11.5%; inhibition at 48 h, 120 µM [13]: 34.4%; inhibition at 48 h, 60 µM [14]: 16.3%; inhibition at 2 s, 100 µM (hERG (KCNH2) [15]): 47.6%; inhibition at 2 s, 30 µM (hERG (KCNH2) [16]): 33.4%
Cc1cc(C)n(Cc2ccc(C(=O)Nc3ccc(-c4ccccc4)cc3)o2)n1 | 6.7 | 0.398 | 
Cc1nc2n(c(=O)c1CCN1CCC(c3noc4cc(F)ccc34)CC1)CCCC2 |  |  | Activity (Mus musculus [8]): Active
Cc1cc(C)n(Cc2ccc(C(=O)Nc3ccc(Cl)cc3C(=O)NCCCCO)o2)n1 | 1.7 | 0.17 | 
Cc1cc(C)n(Cc2ccc(C(=O)Nc3ccc4ccccc4c3)o2)n1 | 3.2 | 0.398 | 
Cc1cc(C)n(Cc2ccc(C(=O)Nc3ccc4cc[nH]c4c3)s2)n1 | 8.9 | 0.316 | EC50 (Glutamate NMDA receptor): 9 µM; fold change (FC) [3]: 10.5; Activity (Mus musculus [4]): inactive; Activity [6]: Non-Toxic; Activity [7]: Non-Toxic; Activity (Mus musculus [8]): inactive; inhibition at 48 h, 120 µM [9]: -0.4%; inhibition at 48 h, 60 µM [10]: -3.2%; inhibition at 48 h, 120 µM [11]: 25.5%; inhibition at 48 h, 60 µM [12]: 2.8%; inhibition at 48 h, 120 µM [13]: 2.5%; inhibition at 48 h, 60 µM [14]: -7.4%; inhibition at 2 s, 100 µM (hERG (KCNH2) [15]): 46.7%; inhibition at 2 s, 30 µM (hERG (KCNH2) [16]): 33.6%

Compound | fold change (FC) [1] | Kp [2] | other results
Cc1cc(C)n(Cc2ccc(C(=O)Nc3ccc(Cl)cc3CO)o2)n1 | 1.1 | 0.398 | 
COC(=O)c1cc(F)ccc1NC(=O)c1ccc(Cn2nc(C)cc2C)o1 | 1.5 | 0.158 | 
Cc1cc(C)n(Cc2ccc(C(=O)Nc3ccc(Cl)cc3C(=O)NCCCO)o2)n1 | 2.9 | 0.0331 | 
Cc1cc(C)n(Cc2ccc(C(=O)Nc3ccc4nc[nH]c4c3)s2)n1 | 0.1 | 0.158 | 
Cc1cc(C)n(Cc2ccc(C(=O)Nc3ccc(-c4ccccc4)cc3C)s2)n1 | 2.8 | 0.501 | 
Cc1cc(C)n(Cc2ccc(C(=O)Nc3ccc(Br)cc3C)s2)n1 | 1.5 | 1.26 | 
Cc1cc(C)n(Cc2ccc(C(=O)Nc3ccc(Cl)cc3C(=O)Nc3ccccc3)o2)n1 | 1.2 | 0.195 | 
Cc1cc(C)n(Cc2ccc(C(=O)Nc3ccc(Cl)c(F)c3)s2)n1 | 6 | 1.26 | 
O=C(Nc1ccc(Cl)c(Cl)c1)c1ccc(Cn2nc(C(F)(F)F)cc2C(F)(F)F)o1 | 2.9 | 3.98 | 
Cc1cc(C)n(Cc2ccc(C(=O)Nc3ccc4cccnc4c3)s2)n1 | 1.1 | 0.316 | 
Cc1cc(C)n(Cc2ccc(C(=O)Nc3ccccc3)o2)n1 | 0.1 | 0.398 | 
Cc1cc(C)n(Cc2ccc(C(=O)Nc3ccc(Cl)cc3C)s2)n1 | -0.2 | 1.26 | 
COC(=O)c1cc(Br)ccc1NC(=O)c1ccc(Cn2nc(C)cc2C)o1 | 2.7 | 0.251 | 
Cc1cc(C)n(Cc2ccc(C(=O)Nc3ccc(Cl)cc3C)o2)n1 | 3.2 | 0.724 | 
Cc1cc(C(F)(F)F)n(Cc2ccc(C(=O)Nc3ccc(Cl)cc3C)o2)n1 | 7.7 | 1.58 | 
COc1cc(NC(=O)c2ccc(Cn3nc(C)cc3C)s2)cc(OC)c1 | 0.4 | 0.398 | 
CNc1ccccc1NC(=O)c1ccc(Cn2nc(C)cc2C)o1 | 0.8 | 0.316 | 
COC(=O)c1cc(F)ccc1NC(=O)c1ccc(Cn2nc(C(F)(F)F)cc2C(F)(F)F)o1 | 1.9 | 0.794 | 
Cc1cc(Br)ccc1NC(=O)c1ccc(Cl)o1 | 1.2 | 2.09 | 

Compound | fold change (FC) [1] | Kp [2] | other results
Cc1cc(Br)ccc1NC(=O)c1ccco1 | -0.2 | 1.41 | 
CCCCNC(=O)c1cc(Cl)ccc1NC(=O)c1ccc(Cn2nc(C)cc2C)o1 | -0.6 | 0.257 | 
Cc1cc(C)n(Cc2ccc(C(=O)Nc3ccc4[nH]c(=O)[nH]c4c3)s2)n1 | 0.3 | 0.0251 | 
CCc1cc(Br)ccc1NC(=O)c1ccc(Cn2nc(C)cc2C)o1 | 2.6 | 0.631 | 
Cc1cc(C)n(Cc2ccc(C(=O)Nc3ccc(F)cc3C)o2)n1 | 1.9 | 0.631 | 
CCOc1ccc(NC(=O)c2ccc(Cn3nc(C)cc3C)s2)cc1OCC | 2.7 | 0.251 | 
Cc1cc(C)n(Cc2ccc(C(=O)Nc3ccc(Cl)cc3Cl)o2)n1 | 4.7 | 1 | 
Cc1cc(C)n(Cc2ccc(C(=O)Nc3ccc(Br)cc3)o2)n1 | 1.2 | 0.646 | 
Cc1ccc(C(=O)Nc2ccc(Br)cc2C)o1 | -0.3 | 1.32 | 
Cc1cc(C)n(Cc2ccc(C(=O)Nc3cc(Cl)cc(Cl)c3)s2)n1 | 1.2 | 1.26 | 
Cc1cc(C)n(Cc2ccc(C(=O)Nc3ccc(F)cc3Cl)o2)n1 | 0.9 | 0.794 | 
Cc1cc(C)n(Cc2ccc(C(=O)Nc3ccc(F)c(C)c3)s2)n1 | 2.4 | 0.794 | 
Cc1cc(F)ccc1NC(=O)c1ccc(Cn2nc(C(F)(F)F)cc2C(F)(F)F)o1 | 2.4 | 2.51 | 
Cc1cc(C)n(Cc2ccc(C(=O)Nc3ccccc3CCO)o2)n1 | 0.4 | 0.126 | 
Cc1cc(C)n(Cc2ccc(C(=O)Nc3ccccc3-c3ccccc3)o2)n1 | 0.3 | 0.398 | 
Cc1cc(NC(=O)c2ccc(Cn3nc(C(F)(F)F)cc3C(F)(F)F)o2)ccc1F | 5.5 | 2.51 | 
COc1cc(NC(=O)c2ccc(Cn3nc(C(F)(F)F)cc3C(F)(F)F)o2)cc(OC)c1 | 2.5 | 1.26 | 
Cc1cc(C)n(Cc2ccc(C(=O)Nc3ccc4cnccc4c3)s2)n1 | -0.2 | 0.316 | 
Cc1cc(C)n(Cc2ccc(C(=O)Nc3ccc(Cl)cc3C(=O)NCc3ccccc3)o2)n1 | 2.9 | 0.166 | 

From ChEMBL document CHEMBL4834434, “Discovery of Novel and Potent N-Methyl-d-aspartate Receptor Positive Allosteric Modulators with Antidepressant-like Activity in Rodent Models” (J Med Chem, 2021)
